Reference: PMC10535741, “Styrylpyridinium Derivatives for Fluorescent Cell Imaging” (Pharmaceuticals, 2023)
Entries after “also recorded” stand apart in the source; their conditions may differ.

Assays:
[1] = system: HeLa (human epitheloid cervix carcinoma); test: in vitro; format: cell-based
Description: (§1) For selected compounds, 6a–6f, we performed a determination of the cytotoxicity in a wider variety of cancer and non-cancerous cell lines (see Table S2, Supplementary Materials) in order to learn the characteristic features of selectivity or the similarity of biological properties.
(§2) The HT-1080 (human connective tissue fibrosarcoma, ATCC® CCL-121™), MH-22A (mouse hepatocarcinoma, ECACC Cat. No. 96121721), A-549 (human lung carcinoma, ATCC® CCL-185™), NIH3T3 (Swiss Albino mouse embryo fibroblast, ECACC Cat. No. 93061524), Hek293 (human embryonic kidney, ATCC® CRL-1573™), BHK-21 (Syrian hamster kidney, ATCC® CCL-10™), A-431 (human epidermoid carcinoma, ATCC® CRL-1555™), Saos-2 (human osteosarcoma, ATCC® HTB-85™), HeLa (human epitheloid cervix carcinoma, ATCC® CCL-2™), U937 (human myeloid leukaemia, ATCC® CRL-1593.2™), C6 (rat glioma, ATCC® CCL-107™), and B16-F10 (murine melanoma, ATCC® CRL-6475™) cell lines were obtained from the American Type Culture Collection (ATCC) and European Collection of Authenticated Cell Cultures (ECACC).
(§3) HT-1080, MH-22A, A-549, NIH3T3, BHK-21, A-431, HeLa, and B16-F10 cells were cultured in Dulbecco’s Modified Eagle’s Medium (DMEM) with 2 mM glutamine and 10% foetal bovine serum (FBS). Hek293 cells were cultured in Eagle’s Minimum Essential Medium with 10% foetal bovine serum. U937 cells were cultured in RPMI-1640 Medium with 2 mM glutamine and 10% foetal bovine serum. C6 cells were cultured in Ham’s F12 Medium with 2 mM glutamine and 10% foetal bovine serum. Saos-2 cells were cultured in McCoy’s 5a Medium with 2 mM glutamine and 10% foetal bovine serum. The cells were incubated at 37 °C with 5% CO2, 95% air, and complete humidity. Once ~90% confluence was reached, they were detached using 0.05% trypsin/EDTA and counted. The cells were plated at optimally determined densities for the logarithmic phase of growth. These cells were then suspended at a concentration of 4000 cells/well for HT-1080, MH-22A, A-549, NIH3T3, BHK-21, A-431, HeLa, B16-F10, Hek293, and Saos-2 cells and a concentration of 9000 cells/well for U937, C6, Hek293, and GM08402 cells and added onto a 96-well plate. For background absorption, some wells remained cell free, i.e., as a blank control. Cells were incubated for 72 h at 37 °C and 5% CO2 where they were exposed to a media containing serial dilutions of the investigated compounds (n = 3). Cell viability was measured using the 3-(4,5-dimethylthiazol-2-yl)-2,5-diphenyl-tetrazolium bromide (MTT) assay. In brief, after incubating with compounds, the culture medium was removed and fresh medium with 0.2 mg/mL MTT was added to each well of the plate. After incubation (3 h, 37 °C, 5% CO2), the medium with MTT solution was removed and replaced with 200 µL DMSO and 25 µL Sorenson’s glycine buffer (glycine 0.1 M, NaCl 0.1 M, pH: 10.5 with 0.1 M NaOH). The plate was shaken for 15 min at room temperature and the optical density (OD) of the wells was determined using a multichannel spectrophotometer (Thermo Scientific Multiskan EX) at 540 nm. The quantity of the control cells was taken in calculations as 100%. The IC50 value was calculated using the program Graph Pad Prism® 3.0.
(§4) The HT-1080 (human connective tissue fibrosarcoma, ATCC® CCL-121™), MH-22A (mouse hepatocarcinoma, ECACC Cat.No. 96121721), A-549 (human lung carcinoma, ATCC® CCL-185™), NIH 3T3 (mouse Swiss Albino embryo fibroblast, ECACC Cat.No. 93061524), Hek293 (human embryonic kidney, ATCC® CRL-1573™), BHK-21 (hamster Syrian kidney, ATCC® CCL-10™), A-431 (human epidermoid carcinoma, ATCC® CRL-1555™), Saos-2 (human oste osarcoma, ATCC® HTB-85™) HeLa (human epitheloid cervix carcinoma, ATCC® CCL-2™), U937 (human myeloid leukaemia, ATCC® CRL-1593.2™), C6 (rat glioma, ATCC® CCL-107™), B16-F10 (murine melanoma, ATCC® CRL-6475™) cell lines were obtained from American Type Culture Collection (ATCC) and European Collection of Authenticated Cell Cultures […]
(§5) Table S2. […]

[2] = system: Saos-2 (human osteosarcoma); test: in vitro; format: cell-based
Description: as §1, §2, §3, §4, §5

[3] = system: U937 (human myeloid leukaemia); test: in vitro; format: cell-based
Description: as §1, §2, §3, §4, §5

[4] = system: A-431 (human epidermoid carcinoma); test: in vitro; format: cell-based
Description: as §1, §2, §3, §4, §5

[5] = system: A-549 (human lung carcinoma); test: in vitro; format: cell-based
Description: as §1, §2, §3, §4, §5

[6] = system: Hek293 (human embryonic kidney); test: in vitro; format: cell-based
Description: as §1, §2, §3, §4, §5

[7] = system: BMDMs; test: Confocal microscopy, localisation of the staining; format: cell-based, mouse; conditions: 5 μM, confocal microscopy with WGA Alexa Fluor 488 and DAPI
Description: The stained BMDMs were studied using confocal microscopy to verify the membrane, cytoplasmic, or nuclear localisation of the staining (Figure 6). Wheat germ agglutinin (WGA) Alexa Fluor 488 (Invitrogen, W11261) was chosen for selective plasma membrane labelling and DAPI (Invitrogen, D1306) was selected for nucleus labelling. […] Furthermore, the SP compound 6e was compared with commercially available CM-DiI Dye (Invitrogen, ex/em: 553/570, Figure 6b).
For confocal microscopy, BMDMs were stained with 4 μM CellTracker™ CM-DiI dye (Cat. No. C7001; Invitrogen) or 5 μM compound 6e. Briefly, the cells were washed and then a dye solution in PBS was added to them. […] Then, the cells were stained with WGA Alexa Fluor 488 (Cat. No. W11261; Invitrogen) following the manufacturer’s instructions. Briefly, the cells were incubated with 1 μg/mL WGA solution in PBS at 37 °C. […] The fluorescence was detected as follows: a DPSS (561 nm) laser was used for excitation of compound 6e and CM-Dil, an argon (488 nm) laser was used for WGA, and a diode (405 nm) laser was used for DAPI. For fluorescence detection, HyD was used for compound 6e and CM-Dil (578 nm–636 nm) and PMT detectors were used for WGA (493 nm–739 nm) and DAPI (417 nm–498 nm), pinhole at 95 µm. The images were analysed using Leica Application Suite X 3.1.5. software (Leica Microsystems, Germany).

CCCCCCCCCCCCCCCC[n+]1ccc(C=Cc2cc(OC)c(OC)c(OC)c2)cc1.[Br-] [Compound 6b]
Cytotoxicity IC50 HeLa [1]: 0.82 µg/mL | Cytotoxicity IC50 Saos-2 [2]: 0.60 µg/mL | Cytotoxicity IC50 U937 [3]: 1.39 µg/mL | Cytotoxicity IC50 A-431 [4]: 1.10 µg/mL | Cytotoxicity IC50 A-549 [5]: 0.98 µg/mL | Cytotoxicity IC50 Hek-293 [6]: 0.38 µg/mL

CCCCCCCCCCCCCCCC[n+]1ccc(C=CC=Cc2cc3c4c(c2)CCCN4CCC3)cc1.[Br-] [Compound 6e, 1-hexadecyl-4-(4-(2,3,6,7-tetrahydro-1H,5H-pyrido[3,2,1-ij]quinolin-9-yl)buta-1,3-dien-1-yl)pyridin-1-ium bromide]
localisation of the staining in cells [7]: strong fluorescent signal localised in the cell cytoplasm, whereas the cell nuclei were not stained; also recorded: localised in the cell cytoplasm and does not stain the cell nucleus; also recorded: localises within the cell cytoplasm and does not stain the cell nucleus
